Source: the supplement of paper PMC5908809

Legend:
[1] = system: normal NK cells expanded with K562-aAPC; experiment: percent inhibition of viability; higher = more inhibition; conditions: 72 h, IL-2 2.5 ng/mL
Method: (§1)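 Drug sensitivity and resistance testing on K562-aAPC-expanded normal NK cells: 5 concentrations (10-fold steps over a 10,000-fold range), 72 h at 37 °C, viability by CellTiter-Glo normalised to DMSO and benzethonium chloride controls; DSS from the fitted curve.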

[2] = system: DERL-7 (IL-2 2.5 ng/mL); experiment: as above; conditions: 72 h
[3] = system: IMC-1 (IL-2 20 ng/mL); experiment: as above; conditions: 72 h
[4] = system: KAI3 (IL-2 2.5 ng/mL); experiment: as above; conditions: 72 h
[5] = system: KHYG-1 (IL-2 2.5 ng/mL); experiment: as above; conditions: 72 h
[6] = system: NK-92 (IL-2 2.5 ng/mL); experiment: as above; conditions: 72 h
[7] = system: NK-YS (IL-2 2.5 ng/mL); experiment: as above; conditions: 72 h
[8] = system: NKL (IL-2 2.5 ng/mL); experiment: as above; conditions: 72 h
[9] = system: SNK-6 (IL-2 2.5 ng/mL); experiment: as above; conditions: 72 h
[10] = system: YT (IL-2 2.5 ng/mL); experiment: as above; conditions: 72 h
[11] = system: normal primary NK cells, pool 1 (3 donors) (IL-2 2.5 ng/mL); experiment: as above; conditions: 72 h
[12] = system: normal primary NK cells, pool 1 (3 donors), resting (IL-2 0 ng/mL); experiment: as above; conditions: 72 h
[13] = system: normal primary NK cells, pool 2 (3 donors) (IL-2 2.5 ng/mL); experiment: as above; conditions: 72 h
[14] = system: normal primary NK cells, pool 3 (3 donors) (IL-2 2.5 ng/mL); experiment: as above; conditions: 72 h
[15] = system: normal NK cells expanded with K562-aAPC; experiment: drug sensitivity score (DSS) (DSS units); higher = more sensitive; extreme values may be limits of the assay; conditions: 72 h; IL-2 2.5 ng/mL
Method: as §1

[16] = system: DERL-7 (IL-2 2.5 ng/mL); experiment: as above; conditions: 72 h
[17] = system: IMC-1 (IL-2 20 ng/mL); experiment: as above; conditions: 72 h
[18] = system: KAI3 (IL-2 2.5 ng/mL); experiment: as above; conditions: 72 h
[19] = system: KHYG-1 (IL-2 2.5 ng/mL); experiment: as above; conditions: 72 h
[20] = system: NK-92 (IL-2 2.5 ng/mL); experiment: as above; conditions: 72 h
[21] = system: NK-YS (IL-2 2.5 ng/mL); experiment: as above; conditions: 72 h
[22] = system: NKL (IL-2 2.5 ng/mL); experiment: as above; conditions: 72 h
[23] = system: SNK-6 (IL-2 2.5 ng/mL); experiment: as above; conditions: 72 h
[24] = system: YT (IL-2 2.5 ng/mL); experiment: as above; conditions: 72 h
[25] = system: normal primary NK cells, pool 1 (3 donors) (IL-2 2.5 ng/mL); experiment: as above; conditions: 72 h
[26] = system: normal primary NK cells, pool 1 (3 donors), resting (IL-2 0 ng/mL); experiment: as above; conditions: 72 h
[27] = system: normal primary NK cells, pool 2 (3 donors) (IL-2 2.5 ng/mL); experiment: as above; conditions: 72 h
[28] = system: normal primary NK cells, pool 3 (3 donors) (IL-2 2.5 ng/mL); experiment: as above; conditions: 72 h

Cc1cc(C)c(CNC(=O)c2cc(-c3ccc(CN4CCOCC4)cc3)cc3c2cnn3C2CCCC2)c(=O)[nH]1 [EPZ-5687] (max concentration tested 10000 nM)
percent inhibition of viability [%]
Conditions | 1 nM | 10 nM | 100 nM | 1000 nM | 10000 nM
[1] | -0.71 | -3.48 | -3.69 | -2.2 | 0.02
[2] | -1.37 | 6.73 | -10.3 | -3.14 | 3.39
[3] | -4.92 | -2.89 | -1.1 | -3.52 | -3.58
[4] | 1.34 | -2.83 | 3.75 | -1.27 | -8.91
[5] | -5.28 | 1.66 | -5.39 | -4.15 | -3.04
[6] | -18.6 | -17.5 | -11.1 | -7.12 | -16.9
[7] | -6.64 | -3.26 | -5.52 | -1.38 | 4.13
[8] | -7.92 | -9.21 | -9.03 | -6.87 | -4.34
[9] | -3.6 | 10.5 | -5.25 | -4.13 | -15.8
[10] | -2.28 | -2.31 | -4.1 | 0.78 | -1.43
[11] | -2.66 | -3.34 | -7.26 | -0.16 | 1.72
[12] | -3.8 | -2.57 | 0.76 | 26.6 | 18.2
[13] | -10.3 | -5.37 | -0.75 | -12.1 | -3.82
[14] | -6.45 | -1.35 | -6.34 | -4.92 | -4.19

Conditions | drug sensitivity score
[15] | 0
[16] | 0
[17] | 0
[18] | 0
[19] | 0
[20] | 0
[21] | 0
[22] | 0
[23] | 0
[24] | 0
[25] | 0
[26] | 4.36
[27] | 0
[28] | 0

NC(=O)N1CCC(CC(=O)N2CCC([C@H]3c4ncc(Br)cc4CCc4cc(Cl)cc(Br)c43)CC2)CC1 [Lonafarnib] (max concentration tested 10000 nM)
percent inhibition of viability [%]
Conditions | 1 nM | 10 nM | 100 nM | 1000 nM | 10000 nM
[1] | -2.48 | -4.83 | 1.81 | 10.5 | 25.2
[2] | 3.48 | 0.48 | 5.47 | 44.5 | 73
[3] | -4.85 | -3.21 | -6.32 | -1.06 | 36.6
[4] | -4.05 | 0.27 | 9.71 | 30.5 | 38.6
[5] | -3.98 | -2.08 | 3.33 | 67.6 | 83.9
[6] | -13 | -12.8 | -0.32 | 39.8 | 57.2
[7] | -6.93 | -2.78 | 13.2 | 56.3 | 79.7
[8] | -11.3 | -10.4 | -4.09 | 19.2 | 37.3
[9] | 3.51 | 1.11 | 8.58 | 31.1 | 33.3
[10] | -2.94 | -2.27 | 4.51 | 28.1 | 60.1
[11] | -10.4 | -3.37 | 6.08 | 19.4 | 88.9
[12] | -4.29 | 2.54 | 32.3 | 35.8 | 90
[13] | -4.12 | 2.21 | 1.62 | 17.7 | 73.4
[14] | -2.09 | 0.34 | 2.3 | 9.06 | 52.3

Conditions | drug sensitivity score
[15] | 1.95
[16] | 9.51
[17] | 1.66
[18] | 6.28
[19] | 13
[20] | 7.81
[21] | 12.2
[22] | 4.21
[23] | 6.27
[24] | 6.47
[25] | 8.02
[26] | 11.6
[27] | 6.83
[28] | 4.3

CN(C)CCOc1ccc(/C(=C(/CCCl)c2ccccc2)c2ccccc2)cc1 [Toremifene] (max concentration tested 10000 nM)
percent inhibition of viability [%]
Conditions | 1 nM | 10 nM | 100 nM | 1000 nM | 10000 nM
[1] | -7.54 | -7.98 | -6.66 | -5.37 | 22.4
[2] | 1.82 | 1.64 | 5.42 | 24.2 | 53.5
[3] | -0.16 | 2.16 | -3.63 | 1.2 | 10.6
[4] | 8.55 | 1.95 | 5.19 | 8.64 | 60.7
[5] | -7.33 | 4.52 | -9.46 | 6.72 | 42
[6] | -4.85 | -1.12 | 2.18 | 6.43 | 54.2
[7] | 1.32 | -4.28 | -2.7 | -0.4 | 25.6
[8] | 7.08 | 8.77 | -8.23 | 8.2 | 32.7
[9] | 13 | 30.5 | -2.4 | 28.2 | 29
[10] | -5.23 | 2.7 | -3.67 | 5.54 | 33
[11] | -5.3 | -17.6 | -3 | -8.46 | 64.3
[12] | -10.2 | -1.02 | 4.14 | 7.87 | 82.2
[13] | -4.96 | -0.07 | -1.79 | 3.55 | 49
[14] | -2.58 | -5.78 | 0.52 | 5.83 | 23.4

Conditions | drug sensitivity score
[15] | 0.54
[16] | 5.52
[17] | 0.01
[18] | 4.76
[19] | 3.24
[20] | 3.98
[21] | 0.96
[22] | 2.74
[23] | 6.85
[24] | 2.42
[25] | 2.96
[26] | 5.83
[27] | 3.11
[28] | 1.64

CN1CCC(CNc2ccc3ncc(-c4cccc(OC(F)(F)F)c4)n3n2)CC1 [SGI-1776] (max concentration tested 10000 nM)
percent inhibition of viability [%]
Conditions | 1 nM | 10 nM | 100 nM | 1000 nM | 10000 nM
[1] | 0.39 | 2.03 | 3.74 | 25.6 | 101
[2] | 4.46 | 1.8 | 11.3 | 43.9 | 101
[3] | -2.53 | -0.64 | 0.12 | -0.28 | 101
[4] | -4.36 | -2.13 | -0.56 | 14.2 | 104
[5] | 2.2 | 0.67 | 5.12 | 10.8 | 104
[6] | 0.53 | 2.3 | 2.24 | 6.57 | 105
[7] | 2.39 | 2.07 | 3.08 | 7.09 | 105
[8] | -15.4 | -12.2 | -2.55 | 18.8 | 103
[9] | 11.8 | -1.96 | 7.5 | -1.42 | 101
[10] | 2.03 | -1.52 | 2.24 | 5.9 | 105
[11] | -1.59 | -15.9 | 0.28 | 11.6 | 101
[12] | 4.88 | -2.56 | 18.3 | 29.4 | 99.8
[13] | -5.28 | -4.01 | 7.14 | 23.6 | 102
[14] | -9.4 | -9.39 | -5.33 | 7.82 | 100

Conditions | drug sensitivity score
[15] | 9.44
[16] | 10.6
[17] | 5.65
[18] | 7.99
[19] | 7.47
[20] | 6.86
[21] | 6.92
[22] | 8.62
[23] | 5.51
[24] | 6.74
[25] | 7.48
[26] | 9.01
[27] | 9.22
[28] | 6.78

CN(C)C1CCN(C(=O)c2ccc(NC(=O)Nc3ccc(-c4nc(N5CCOCC5)nc(N5CCOCC5)n4)cc3)cc2)CC1 [Gedatolisib] (max concentration tested 1000 nM)
percent inhibition of viability [%]
Conditions | 0.1 nM | 1 nM | 10 nM | 100 nM | 1000 nM
[1] | -0.13 | 7.4 | 1.57 | 11 | 38
[2] | -6.47 | 3.75 | 20.5 | 81.6 | 96.8
[3] | 1.19 | 4.03 | -1.18 | -2.3 | 34.8
[4] | -4.82 | -2.02 | 7.1 | 34.4 | 65.2
[5] | 3.45 | 0.68 | 6.16 | 4.39 | 40.9
[6] | -8.45 | -9.3 | 7.7 | -10.2 | 15.7
[7] | 1.81 | -3.05 | 18.4 | 56.5 | 75.3
[8] | -11 | -10.7 | 19.5 | 58.6 | 62
[9] | 13 | 9.94 | 17.4 | 15.5 | 55.6
[10] | -1.35 | -2.24 | 7.23 | 19.8 | 61.7
[11] | 4.43 | -5.19 | 5.53 | 2.83 | 24.4
[12] | 4.88 | -18.3 | 3.45 | -12.4 | 12.5
[13] | -16.6 | -2.18 | -0.9 | 7.29 | 33.2
[14] | -10.1 | -4.3 | -0.54 | 0.15 | 27.5

Conditions | drug sensitivity score
[15] | 3.49
[16] | 17.5
[17] | 1.45
[18] | 7.65
[19] | 2.77
[20] | 0.11
[21] | 12.7
[22] | 13.9
[23] | 6.43
[24] | 5.75
[25] | 1.34
[26] | 0.01
[27] | 2.68
[28] | 1.15
